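These data come from cells grown in 96-well plates and exposed to compound for 48 hours at five concentrations. At the GI50, growth is halved.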 Activity calls are given as the source filed them. Rule as the data show it: active = GI50 up to about 1.1 µM and inactive = higher.
Tests used:
Assay in all cases: inhibition of tumour cell growth, NCI panel, 48 h
A498 = system: A498
COLO 205 = system: COLO 205
EKVX = system: EKVX
HCT-116 = system: HCT-116
HCT-15 = system: HCT-15
HL-60 = system: HL-60
IGROV-1 = system: IGROV-1
KM12 = system: KM12
MOLT-4 = system: MOLT-4
Malme-3M = system: Malme-3M
NCI-H23 = system: NCI-H23
NCI-H460 = system: NCI-H460
OVCAR-4 = system: OVCAR-4
OVCAR-8 = system: OVCAR-8
PC-3 = system: PC-3
SK-MEL-2 = system: SK-MEL-2
SNB-75 = system: SNB-75
SR = system: SR
SW-620 = system: SW-620
UACC-62 = system: UACC-62

Measured: GI50

CCCC(=O)Nc1cc(/C=C/C(=O)N2C[C@@H]3C[C@]34C2=CC(=O)c2[nH]cc(C)c24)n(C)c1
0.723 µM: HCT-15
active: A498 0.236 µM | COLO 205 0.293 µM | EKVX 0.644 µM | HCT-116 0.0841 µM | HL-60 0.0471 µM | IGROV-1 0.329 µM | KM12 0.653 µM | MOLT-4 0.0257 µM | Malme-3M 0.0746 µM | NCI-H23 0.0927 µM | NCI-H460 0.221 µM | OVCAR-4 0.256 µM | OVCAR-8 0.0533 µM | PC-3 0.259 µM | SK-MEL-2 0.261 µM | SNB-75 0.345 µM | SR 0.0149 µM | SW-620 0.0706 µM | UACC-62 0.0682 µM

CC(C)=CCC[C@@H](C)c1c2nc3ccccc3[nH]c-2c(C)c(=O)c1O
0.236 µM: HCT-15
active: HL-60 0.383 µM | NCI-H460 0.671 µM | UACC-62 1.09 µM
inactive: A498 2.12 µM | COLO 205 5.65 µM | EKVX 2.7 µM | HCT-116 1.36 µM | IGROV-1 2.07 µM | KM12 2.45 µM | MOLT-4 1.44 µM | Malme-3M 1.58 µM | NCI-H23 1.89 µM | OVCAR-4 2.88 µM | OVCAR-8 1.71 µM | PC-3 3.32 µM | SK-MEL-2 1.59 µM | SNB-75 1.71 µM | SR 3.41 µM | SW-620 3.13 µM

O=C1NC(=S)N(c2ccccc2)C1=O
> 100 µM: HCT-15
inactive: A498 > 100 µM | COLO 205 > 100 µM | EKVX > 100 µM | HCT-116 > 100 µM | HL-60 > 100 µM | IGROV-1 > 100 µM | KM12 > 100 µM | MOLT-4 > 100 µM | Malme-3M > 100 µM | NCI-H23 > 100 µM | NCI-H460 > 100 µM | OVCAR-4 > 100 µM | OVCAR-8 > 100 µM | PC-3 > 100 µM | SK-MEL-2 > 100 µM | SNB-75 > 100 µM | SR > 100 µM | SW-620 > 100 µM | UACC-62 > 100 µM

c1ccc2c(Cc3[nH]c4ccccc4c3Cc3c[nH]c4ccccc34)c[nH]c2c1
2.76 µM: HCT-15
inactive: A498 2.39 µM | COLO 205 2.07 µM | EKVX 2.61 µM | HCT-116 1.69 µM | HL-60 1.86 µM | IGROV-1 1.67 µM | KM12 2.09 µM | MOLT-4 1.66 µM | Malme-3M 2.05 µM | NCI-H23 2.1 µM | NCI-H460 1.91 µM | OVCAR-4 3.06 µM | OVCAR-8 4.09 µM | PC-3 2.38 µM | SK-MEL-2 2.36 µM | SNB-75 2.48 µM | SR 2.87 µM | SW-620 1.74 µM | UACC-62 11 µM
